The target of experiment [1] is T1, purified recombinant human GAC (GLS1) (Homo sapiens, UniProt O94925).
T1 sequence (O94925 55-598 isoform O94925-3 limits assumed): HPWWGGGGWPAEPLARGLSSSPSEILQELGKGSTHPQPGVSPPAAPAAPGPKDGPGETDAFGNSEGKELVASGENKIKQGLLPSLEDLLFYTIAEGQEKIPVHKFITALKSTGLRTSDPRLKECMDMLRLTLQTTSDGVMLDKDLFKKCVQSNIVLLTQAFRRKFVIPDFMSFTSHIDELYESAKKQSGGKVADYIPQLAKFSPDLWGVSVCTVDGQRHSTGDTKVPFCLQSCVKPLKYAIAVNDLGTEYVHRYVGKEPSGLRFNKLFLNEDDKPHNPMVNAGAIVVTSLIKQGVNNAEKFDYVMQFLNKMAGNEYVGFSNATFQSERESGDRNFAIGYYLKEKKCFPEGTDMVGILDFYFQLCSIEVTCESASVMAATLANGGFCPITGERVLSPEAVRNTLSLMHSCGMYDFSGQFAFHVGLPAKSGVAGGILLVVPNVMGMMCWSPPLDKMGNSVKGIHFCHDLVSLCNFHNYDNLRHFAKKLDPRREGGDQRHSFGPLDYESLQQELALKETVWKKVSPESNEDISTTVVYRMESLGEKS
In words: GLS1 Enzymatic Activity Assay (dual-coupled enzymatic assay). Format: biochemical. As to the method: GLS1 Enzymatic Activity Assay
The inhibition of purified recombinant human GAC by varying concentrations of inhibitors is assessed via a dual-coupled enzymatic assay. The glutamate produced by the glutaminase reaction is used by glutamate oxidase to produce α-ketoglutarate, ammonia, and hydrogen peroxide, with this hydrogen peroxide subsequently being used by horseradish peroxidase to produce resorufin in the presence of Amplex UltraRed. The assay buffer consisted of 50 mM Hepes (pH 7.4), 0.25 mM EDTA and 0.1 mM Triton X-100. GAC was incubated with potassium phosphate (10 minutes at room temperature) prior to incubation with inhibitor (10 minutes at room temperature). The final reaction conditions were as follows: 2 nM GAC, 50 mM potassium phosphate, 100 mU/mL glutamate oxidase (Sigma), 1 mM glutamine (Sigma), 100 mU/mL horseradish peroxidase (Sigma), 75 μM Amplex UltraRed (Life Technologies), and 1% (v/v) DMSO. The production of resorufin was monitored on a Perkin Elmer Envision plate reader (excitation 530 nm, emission 590 nm) either in a kinetics or endpoint mode (at 20 minutes). IC50 values were calculated using a four-parameter logistic curve fit.

In the next experiment the test system is A549 cells. In words: Proliferation Assay (A549 cell viability, Cell Titer Fluor). In kind it is cell-based. Particulars: Homo sapiens, 72 hours. As to the method: A549 cells were routinely maintained in RPMI 1640 media (Gibco catalog number 11875-093) supplemented with 10% dialyzed fetal bovine serum using a humidified incubator (37° C., 5% CO2 and ambient O2). In preparation for the viability assay, cells were inoculated into 384-well black CulturPlates (Perkin Elmer) at a density of 1000 cells/well in a volume of 40 uL. Following a 24-hour incubation at 37° C., 5% CO2 and ambient O2, cells were treated with compound (10 uL) in a final DMSO concentration of 0.5% (v/v). The microplates were then incubated for 72 hours (37° C., 5% CO2 and ambient O2). Cell Titer Fluor (Promega) was subsequently added (10 uL of 6× reagent) and mixed for 15 minutes at room temperature. The plates were then incubated for 30 minutes (37° C., 5% CO2 and ambient O2) and fluorescence was subsequently read on the Perkin Elmer Envision plate reader. EC50 values were calculated using a four-parameter logistic curve fit.

The values that follow come from patent US20160002248A1, “GLS1 INHIBITORS FOR TREATING DISEASE” (Board of Regents, The University of Texas System, priority 2014, published 2016).

As a reminder, the IC50 is the concentration that gives 50% inhibition. As a reminder, the EC50 is the concentration that produces a half-maximal response. As to `CC(C)(O)c1cccc(CNC(=O)c2cn(CCCCc3cc4cc(C5CC5)[nH]c4nn3)nn2)n1` [Example 87, 1-(4-(6-cyclopropyl-7H-pyrrolo[2,3-c]pyridazin-3-yl)butyl)-N-((6-(2-hydroxypropan-2-yl)pyridin-2-yl)methyl)-1H-1,2,3-triazole-4-carboxamide], in experiment [1], the IC50 lay in the range of 0.1 to 0.5 µM. This compound also came in with an EC50 in the experiment on A549 cells of 0.5 to 5 µM.

Consider `O=C(NCc1ccccc1)c1nnc(CCCCc2cc3cc(Cc4ccccc4)[nH]c3nn2)s1` [Example 73, N-benzyl-5-(4-{6-benzyl-7H-pyrrolo[2,3-c]pyridazin-3-yl}butyl)-1,3,4-thiadiazole-2-carboxamide], for which, in experiment [1], the IC50 was below 0.1 µM. Further, in the experiment with A549 cells, the EC50 fell in the range of 0.5 to 5 µM. Consider `O=C(Nc1nnc(CCCCc2cc3cc(Cc4ccccc4)[nH]c3nn2)s1)OC1CCOCC1` [Example 61, oxan-4-yl N-[5-(4-{6-benzyl-7H-pyrrolo[2,3-c]pyridazin-3-yl}butyl)-1,3,4-thiadiazol-2-yl]carbamate], for which the concentration for half-maximal inhibition (IC50) in experiment [1] was below 0.1 µM. The concentration giving a half-maximal response (EC50) in the experiment with A549 cells was 0.5 to 5 µM.

In the case of `Cc1ccc(CNC(=O)c2cn(CCCCc3cc4c(Cl)c(C5CC5)[nH]c4nn3)nn2)cn1` [Example 19, 1-(4-(5-Chloro-6-cyclopropyl-7H-pyrrolo[2,3-c]pyridazin-3-yl)butyl)-N-((6-methylpyridin-3-yl)methyl)-1H-1,2,3-triazole-4-carboxamide 2,2,2-trifluoroacetate], the IC50 in experiment [1] was below 0.1 µM. In addition, the EC50 in the experiment on A549 cells is 0.5 to 5 µM. In the same order, the values of `CC(C)(O)c1ccc(CNC(=O)c2cn(CCCCc3cc4c(Br)c(C5CC5)[nH]c4nn3)nn2)cn1` [Example 89, 1-(4-{5-bromo-6-cyclopropyl-7H-pyrrolo[2,3-c]pyridazin-3-yl}butyl)-N-{[6-(2-hydroxypropan-2-yl)pyridin-3-yl]methyl}-1H-1,2,3-triazole-4-carboxamide] are below 0.1 µM and 0.1 to 0.5 µM. As for `O=C(NCc1ccc(C(F)(F)F)nc1)c1cn(CCCCc2cc3c(C4CC4)c(C4CC4)[nH]c3nn2)nn1` [Example 207, 1-(4-{5,6-dicyclopropyl-7H-pyrrolo[2,3-c]pyridazin-3-yl}butyl)-N-{[6-(trifluoromethyl)pyridin-3-yl]methyl}-1H-1,2,3-triazole-4-carboxamide], the IC50 in experiment [1] was below 0.1 µM. Further, the EC50 with A549 cells fell in the range of 0.1 to 0.5 µM.

With `CNC(=O)c1cn(CC(F)CCc2cc3cc(-c4ccccc4F)[nH]c3nn2)nn1` (centres unmarked) [Example 243, 1-{2-fluoro-4-[6-(2-fluorophenyl)-7H-pyrrolo[2,3-c]pyridazin-3-yl]butyl}-N-methyl-1H-1,2,3-triazole-4-carboxamide], the concentration for half-maximal inhibition (IC50) in experiment [1] lay within 0.1 to 0.5 µM. The EC50 with A549 cells was in the range of 0.5 to 5 µM. Taken in the same sequence, the figures for `CC(C)(C)C(=O)N1CC(c2cc3cc(CCCCn4cc(C(=O)NCc5cc(OC(F)(F)F)ccc5F)nn4)nnc3[nH]2)C1` [Example 192, 1-(4-(6-[1-(2,2-dimethylpropanoyl)azetidin-3-yl]-7H-pyrrolo[2,3-c]pyridazin-3-yl}butyl)-N-{[2-fluoro-5-(trifluoromethoxy)phenyl]methyl}-1H-1,2,3-triazole-4-carboxamide] were below 0.1 µM and below 0.1 µM. For `CS(=O)(=O)Nc1cccc(-c2c(C3CC3)[nH]c3nnc(CCCCn4cc(C(=O)NCc5ccccn5)nn4)cc23)c1` [Example 137, 1-{4-[6-cyclopropyl-5-(3-methanesulfonamidophenyl)-7H-pyrrolo[2,3-c]pyridazin-3-yl]butyl}-N-(pyridin-2-ylmethyl)-1H-1,2,3-triazole-4-carboxamide], the IC50 in experiment [1] was below 0.1 µM. The compound also gave an EC50 in the experiment with A549 cells of 0.5 to 5 µM. As for `O=C(NCc1cncc(C(F)(F)F)c1)c1cn(CCCCc2cc3c(C4CC4)c(C4CC4)[nH]c3nn2)nn1` [Example 212, 1-(4-{5,6-dicyclopropyl-7H-pyrrolo[2,3-c]pyridazin-3-yl}butyl)-N-{[5-(trifluoromethyl)pyridin-3-yl]methyl}-1H-1,2,3-triazole-4-carboxamide], in experiment [1], the IC50 was below 0.1 µM. The EC50 in the experiment on A549 cells was in the range of 0.1 to 0.5 µM. Taken in the same sequence, the figures for `O=C(NCc1ccccn1)c1cn(CCCCc2cc3cc(-c4ccccc4F)[nH]c3nn2)nn1` [Example 134, 1-(4-(6-(2-fluorophenyl)-7H-pyrrolo[2,3-c]pyridazin-3-yl)butyl)-N-(pyridin-2-ylmethyl)-1H-1,2,3-triazole-4-carboxamide] were below 0.1 µM and below 0.1 µM. In the same order, the values of `CS(=O)(=O)N1CC(c2cc3cc(CCCCn4cc(C(=O)NCc5cc(OC(F)(F)F)ccc5F)nn4)nnc3[nH]2)C1` [Example 130, N-{[2-fluoro-5-(trifluoromethoxy)phenyl]methyl}-1-{4-[6-(1-methanesulfonylazetidin-3-yl)-7H-pyrrolo[2,3-c]pyridazin-3-yl]butyl}-1H-1,2,3-triazole-4-carboxamide] are below 0.1 µM and 0.1 to 0.5 µM. `O=C(Cc1ccccc1)Nc1nnc(CCCCCc2cc3cc(Cc4ccccc4)[nH]c3nn2)s1` [Example 7, N-(5-(5-(6-benzyl-7H-pyrrolo[2,3-c]pyridazin-3-yl)pentyl)-1,3,4-thiadiazol-2-yl)-2-phenylacetamide]: in experiment [1], the 50% inhibitory concentration (IC50) fell in the range of 0.5 to 5 µM.

In the case of `CC(C)(O)CNC(=O)c1nnc(CCCCc2cc3cc(Cc4ccccc4)[nH]c3nn2)s1` [Example 71, 5-(4-{6-benzyl-7H-pyrrolo[2,3-c]pyridazin-3-yl}butyl)-N-(2-hydroxy-2-methylpropyl)-1,3,4-thiadiazole-2-carboxamide], the IC50 in experiment [1] lay within 0.5 to 5 µM. For the compound `O=C(NCc1ccccn1)c1cn(CCCCc2cc3c4c([nH]c3nn2)CCC4)nn1` [Example 142, N-(pyridin-2-ylmethyl)-1-(4-(5,6,7,8-tetrahydrocyclopenta[4,5]pyrrolo[2,3-c]pyridazin-3-yl)butyl)-1H-1,2,3-triazole-4-carboxamide], in experiment [1], the IC50 is 0.5 to 5 µM. As to `Nc1ccn(CCCCc2cc3cc(C4CC4)[nH]c3nn2)c(=O)c1` [Example 31, 4-amino-1-(4-{6-cyclopropyl-7H-pyrrolo[2,3-c]pyridazin-3-yl}butyl)-1,2-dihydropyridin-2-one], in experiment [1], the IC50 lay in the range of 0.5 to 5 µM. On the same count and under the same terms, with `O=C(NCc1ccccn1)c1cn(CCCCc2cc3cc[nH]c3nn2)nn1` [Example 25, 1-(4-(7H-pyrrolo[2,3-c]pyridazin-3-yl)butyl)-N-(pyridin-2-ylmethyl)-1H-1,2,3-triazole-4-carboxamide] the figure was 0.5 to 5 µM; with `Nc1nnc(CCCCc2cc3cc[nH]c3nn2)s1` [Example 1, 5-(4-(7H-pyrrolo[2,3-c]pyridazin-3-yl)butyl)-1,3,4-thiadiazol-2-amine], 0.5 to 5 µM; with `O=C(Cc1ccccc1)Nc1nnc(CCCCc2cnc3[nH]c(Cc4ccccc4)nc3c2)s1` [Example 23, N-(5-(4-(2-benzyl-3H-imidazo[4,5-b]pyridin-6-yl)butyl)-1,3,4-thiadiazol-2-yl)-2-phenylacetamide], 0.5 to 5 µM. Consider `Nc1nnc(CCCCc2cnc3[nH]c(Cc4ccccc4)nc3c2)s1` [Example 22, 5-(4-(2-benzyl-3H-imidazo[4,5-b]pyridin-6-yl)butyl)-1,3,4-thiadiazol-2-amine], for which the IC50 in experiment [1] was in the range of 0.5 to 5 µM. Turning to `O=C(NCc1ccccc1)c1cn(CCCCc2cc3cc[nH]c3nn2)nn1` [Example 11, 1-(4-(7H-pyrrolo[2,3-c]pyridazin-3-yl)butyl)-N-benzyl-1H-1,2,3-triazole-4-carboxamide], in experiment [1], the IC50 was in the range of 0.5 to 5 µM. Regarding `O=C(NCc1cccc(OC(F)(F)F)c1)c1cn(CCCCc2cc3c(C4=CCNCC4)c(C4CC4)[nH]c3nn2)nn1` [Example 199, 1-{4-[6-cyclopropyl-5-(1,2,3,6-tetrahydropyridin-4-yl)-7H-pyrrolo[2,3-c]pyridazin-3-yl]butyl}-N-{[3-(trifluoromethoxy)phenyl]methyl}-1H-1,2,3-triazole-4-carboxamide], in experiment [1], the IC50 lay in the range of 0.1 to 0.5 µM. The same measure, in the same setting: for `O=C(Cc1cccnc1)Nc1nnc(CCCCc2cc3cc(Cc4ccccc4)[nH]c3nn2)s1` [Example 57, N-[5-(4-{6-benzyl-7H-pyrrolo[2,3-c]pyridazin-3-yl}butyl)-1,3,4-thiadiazol-2-yl]-2-(pyridin-3-yl)acetamide] the value was below 0.1 µM.
